# Measurements as given in patent US9181218B2, “Compounds for improved stem cell differentiation into hepatocytes” (Hoffmann-La Roche Inc., priority 2013, dated 2015).
# Test system: interferon-stimulated genes (ISGs)
# Assay: Microarray analysis of iCell Hepatocytes treated with the compound of example 1
# Type: cell-based, Human
# Excerpt: iCell Hepatocytes treated with the compound of example 1 results in the up and down-regulation of a host of genes; including a kinetic effect on interferon-stimulated gene (ISGs) expression. See FIGS. 15-I and 15-II, 16-I and 16-II and 18 and Table 1.
smiles,measurement,setting,value
"O=C(NCc1cccc(F)c1)c1cccc2nc(-c3c(NC[C@@H](O)c4ccccc4)cc[nH]c3=O)[nH]c12 [Example 1, 2-[4-((S)-2-hydroxy-2-phenyl-ethylamino)-2-oxo-1,2-dihydro-pyridin-3-yl]-3H-benzoimidazole-4-carboxylic acid 3-fluoro-benzylamide]",ADAM19 Raw Est Fold Change,2 HOUR,2.77
same,AES Raw Est Fold Change,2 HOUR,2.07
same,AKT3 Raw Est Fold Change,2 HOUR,−1.76
same,ASNS Raw Est Fold Change,2 HOUR,1.80
same,BCL3 Raw Est Fold Change,2 HOUR,−1.44
same,BUB1 Raw Est Fold Change,2 HOUR,−20.72
same,C10orf10 Raw Est Fold Change,2 HOUR,−3.72
same,CD80 Raw Est Fold Change,2 HOUR,−13.65
same,CD300LF Raw Est Fold Change,2 HOUR,5.42
same,CEBPD Raw Est Fold Change,2 HOUR,−1.29
same,CSNK1D Raw Est Fold Change,2 HOUR,1.10
same,DDIT4 Raw Est Fold Change,2 HOUR,2.67
same,DRAP1 Raw Est Fold Change,2 HOUR,1.17
same,EFNB2 Raw Est Fold Change,2 HOUR,−1.63
same,EHHADH Raw Est Fold Change,2 HOUR,−1.16
same,EPAS1 Raw Est Fold Change,2 HOUR,−2.61
same,ETV7 Raw Est Fold Change,2 HOUR,−2.54
same,FGF2 Raw Est Fold Change,2 HOUR,−1.76
same,GOLGA3 Raw Est Fold Change,2 HOUR,1.45
same,GTPBP2 Raw Est Fold Change,2 HOUR,−1.29
same,HLA-C Raw Est Fold Change,2 HOUR,−4.87
same,ISGF3G Raw Est Fold Change,2 HOUR,−1.17
same,JAK1 Raw Est Fold Change,2 HOUR,−5.55
same,JUNB Raw Est Fold Change,2 HOUR,−6.01
same,KAL1 Raw Est Fold Change,2 HOUR,−2.61
same,KPNB1 Raw Est Fold Change,2 HOUR,1.14
same,MAX Raw Est Fold Change,2 HOUR,3.74
same,MPO Raw Est Fold Change,2 HOUR,−3.18
same,PCMT1 Raw Est Fold Change,2 HOUR,−1.10
same,PHF11 Raw Est Fold Change,2 HOUR,−1.80
same,PHF15 Raw Est Fold Change,2 HOUR,1.74
same,PI4K2B Raw Est Fold Change,2 HOUR,−1.08
same,PIM3 Raw Est Fold Change,2 HOUR,−1.19
same,PXK Raw Est Fold Change,2 HOUR,1.17
same,RHOH Raw Est Fold Change,2 HOUR,−14.71
same,SCARB2 Raw Est Fold Change,2 HOUR,1.50
same,SOCS1 Raw Est Fold Change,2 HOUR,−4.13
same,SOCS3 Raw Est Fold Change,2 HOUR,−9.95
same,TXNIP Raw Est Fold Change,2 HOUR,−2.04
same,ABHD5 Raw Est Fold Change,24 HOUR,−1.43
same,ADM Raw Est Fold Change,24 HOUR,−1.81
same,AKAP12 Raw Est Fold Change,24 HOUR,3.33
same,ALCAM Raw Est Fold Change,24 HOUR,−1.24
same,AMPH Raw Est Fold Change,24 HOUR,−3.29
same,ARHGDIB Raw Est Fold Change,24 HOUR,−1.72
same,ARHGEF3 Raw Est Fold Change,24 HOUR,−1.32
same,ATF3 Raw Est Fold Change,24 HOUR,−3.06
same,AXL Raw Est Fold Change,24 HOUR,−6.82
same,B4GALT5 Raw Est Fold Change,24 HOUR,−1.87
same,BAG1 Raw Est Fold Change,24 HOUR,1.26
same,BCL3 Raw Est Fold Change,24 HOUR,−3.11
same,BHMT Raw Est Fold Change,24 HOUR,5.84
same,BLZF1 Raw Est Fold Change,24 HOUR,−1.26
same,BST2 Raw Est Fold Change,24 HOUR,−1.70
same,BTG1 Raw Est Fold Change,24 HOUR,−1.16
same,BUB1 Raw Est Fold Change,24 HOUR,−33.18
same,C1S Raw Est Fold Change,24 HOUR,−1.62
same,C4orf32 Raw Est Fold Change,24 HOUR,−7.20
same,C4orf33 Raw Est Fold Change,24 HOUR,3.95
same,C10orf10 Raw Est Fold Change,24 HOUR,−2.71
same,CASP4 Raw Est Fold Change,24 HOUR,−5.09
same,CASP5 Raw Est Fold Change,24 HOUR,−3.00
same,CCND3 Raw Est Fold Change,24 HOUR,−1.81
same,CD38 Raw Est Fold Change,24 HOUR,−10.02
same,CD47 Raw Est Fold Change,24 HOUR,−1.52
same,CEBPD Raw Est Fold Change,24 HOUR,−2.58
same,CHD6 Raw Est Fold Change,24 HOUR,1.16
same,CHST12 Raw Est Fold Change,24 HOUR,−1.21
same,CLCN6 Raw Est Fold Change,24 HOUR,−1.26
same,CREB3L3 Raw Est Fold Change,24 HOUR,−3.22
same,CRYM Raw Est Fold Change,24 HOUR,2.03
same,CSDA Raw Est Fold Change,24 HOUR,−2.38
same,CTSL Raw Est Fold Change,24 HOUR,−1.28
same,CX3CL1 Raw Est Fold Change,24 HOUR,2.73
same,CXCL10 Raw Est Fold Change,24 HOUR,1.71
same,CYBA Raw Est Fold Change,24 HOUR,−1.64
same,CYP1B1 Raw Est Fold Change,24 HOUR,−2.71
same,DDX17 Raw Est Fold Change,24 HOUR,−1.56
same,DNAPTP6 Raw Est Fold Change,24 HOUR,1.34
same,DRAP1 Raw Est Fold Change,24 HOUR,1.29
same,EFNB2 Raw Est Fold Change,24 HOUR,−1.46
same,EGR1 Raw Est Fold Change,24 HOUR,−2.86
same,EHHADH Raw Est Fold Change,24 HOUR,1.80
same,EMP1 Raw Est Fold Change,24 HOUR,−5.94
same,EPAS1 Raw Est Fold Change,24 HOUR,−2.84
same,ETS2 Raw Est Fold Change,24 HOUR,−1.73
same,ETV6 Raw Est Fold Change,24 HOUR,−1.37
same,ETV7 Raw Est Fold Change,24 HOUR,−3.88
same,FAM125B Raw Est Fold Change,24 HOUR,−1.54
same,FBXO6 Raw Est Fold Change,24 HOUR,3.00
same,FFAR2 Raw Est Fold Change,24 HOUR,−7.50
same,FKBP1B Raw Est Fold Change,24 HOUR,−1.90
same,FKBP5 Raw Est Fold Change,24 HOUR,−1.39
same,FLT1 Raw Est Fold Change,24 HOUR,−1.75
same,FNDC3B Raw Est Fold Change,24 HOUR,−1.67
same,FNDC4 Raw Est Fold Change,24 HOUR,−1.59
same,FUBP1 Raw Est Fold Change,24 HOUR,−1.50
same,FUT4 Raw Est Fold Change,24 HOUR,−1.89
same,G6PC Raw Est Fold Change,24 HOUR,4.22
same,GALNT2 Raw Est Fold Change,24 HOUR,−5.18
same,GBP2 Raw Est Fold Change,24 HOUR,−1.83
same,GBP4 Raw Est Fold Change,24 HOUR,−3.07
same,GCH1 Raw Est Fold Change,24 HOUR,1.17
same,GK Raw Est Fold Change,24 HOUR,−2.50
same,GLUL Raw Est Fold Change,24 HOUR,1.13
same,GNAI1 Raw Est Fold Change,24 HOUR,1.43
same,GOLGA3 Raw Est Fold Change,24 HOUR,−1.24
same,GTF2F1 Raw Est Fold Change,24 HOUR,1.28
same,GTPBP1 Raw Est Fold Change,24 HOUR,−1.24
same,HEG1 Raw Est Fold Change,24 HOUR,−3.64
same,HIF1A Raw Est Fold Change,24 HOUR,−1.47
same,HK2 Raw Est Fold Change,24 HOUR,−1.88
same,HLA-DPA1 Raw Est Fold Change,24 HOUR,−2.10
same,HLA-DPB1 Raw Est Fold Change,24 HOUR,−2.11
same,ICAM1 Raw Est Fold Change,24 HOUR,−6.60
same,IER3 Raw Est Fold Change,24 HOUR,−2.60
same,IFI16 Raw Est Fold Change,24 HOUR,−6.86
same,IFI27 Raw Est Fold Change,24 HOUR,−1.56
same,IFIT1 Raw Est Fold Change,24 HOUR,3.58
same,IFIT3 Raw Est Fold Change,24 HOUR,1.88
same,IFITM1 Raw Est Fold Change,24 HOUR,−3.11
